We go through 3 compounds from patent US20050244964A1, “Production of neural progenitor cells” (priority 2002, published 2005).

The subject of one assay is mouse ES cells. As to the kind of experiment: Neural versus non-neural differentiation and neural complexity scoring of mouse ES cell embryoid bodies. Format: cell-based. To be noted: RA doses 1 μM and 10 nM compared with 100 nM. The source says: FIG. 2A is a graph that illustrates the level of neural differentiation when retinoic acid and MEDII are and are not present. The first column (ICb−RA) used a standard media (ICb, see Example 2), where a high percentage of non-neural tissue (scored as beating muscle) was observed. […] The third column used a 50% MEDII conditioned media but without RA supplementation. […] The fourth column used 50% MEDII supplemented with RA.
FIG. 2B is similar to FIG. 2A except the level of neural complexity was scored. A score of 1 to 3 was assigned depending upon the neuronal complexity (number of neurites and networking emanating from the body), with a score of 3 for the most complex.
Single cell suspensions of mouse ES cells were cultured for 4 days in standard culture media (ICb) or in the presence of 50% MEDII. The standard conditioning media (ICb) contains 90 ml DMEM, 10 ml of foetal calf serum, 1 ml glutamine (0.1M stock at 1/100 dilution) and 100 ul of β-Mercaptoethanol (0.1M stock at 1/1000 dilution). The culture process involved media changes on days 2 and 4 involving a ½ splitting of the cell aggregates. […] This media change occurred every day for three days (i.e to EBM^7). By the end of this period the morphological differences in treatment when supplemented with combinations of 50% MEDII and/or RA were apparent. […]

The test system of the next assay is Human ES cells. As to the kind of experiment: TH+ cell immunostaining of adhered human ES cell embryoid bodies. It is filed as cell-based. The settings on record: for formation of TH+ cells (in words): human ES embryoid bodies adhered and differentiated. As to the method: Collagenase/trypsin passaged ES cells were prepared as a single cell suspension and seeded at a density of 150 cells/μl in low attachment TC dishes (Costar). Cell aggregates were split 1:3 at day 2 and possibly at day 3 if required. Cultures were feed daily for 9 days and on day 9 bodies were transferred to poly-L-ornithine/laminin coated 24 well trays in 0.5 ml of medium if adhesive culture was to be conducted. Another 0.5 ml media was added to each well after 24 hours incubation. Adhered cultures or suspension cultures were fed daily for a further 8 days.
Embryoid bodies or neurospheres/aggregates are allowed to settle onto a coated surface to allow differentiation to occur (4 to 8 days). The coating can be on a plastic surface in either a tray or a coated coverslip.
The ability of basic media with supplements (DMEM +N2 or ITSS) to promote neural differentiation of hES cells was compared with medium that included F12: (DMEM:F12 (1:1) +N2 or ITSS)
Trypsinised Human ES cells were seeded at approximately 10 to 20 cells/μl of media into 10 ml of neurosphere media (DMEM:F12, 10 μg/ml heparin (SIGMA), 1/50 B27(GIBCO), 1/100 pen/strep, 1/100 ITSS) in a T75 culture flask. 10 ng/ml FGF2 was optionally added but the culture medium was preferably mitogen-free (no FGF2). Cultures were maintained in the media for 9 days after which the embryoid bodies were optionally transferred to poly-L-ornithine/laminin plates and cultured in the same media for a further 6 days. The embryoid bodies so formed (EB^15) whether from adherent or suspension culture, were then triturated to near single cell form and used for either transplantation or for the formation of neurospheres/cell reaggregates.
Example 5 was repeated utilising human ES cells and a minimal media consisting of DMEM and 100 μM L-proline as outlined in the schematic of FIG. 12. Results were similar to those described in Example 5.

As for `CC1=C(/C=C/C(C)=C/C=C/C(C)=C/C(=O)O)C(C)(C)CCC1` [RA, (all-E)-3,7-dimethyl-9-(2,6,6-trimethyl-1-cyclohexen-1-yl)-2,4,6,8-nonatetraenoic acid], the “uniformity of RA effect on embryoid bodies” value in the assay on mouse ES cells was “not as uniform as seen with 100 nM RA”.
Regarding `O=C(O)[C@@H]1CCCN1` [L-proline], the “formation of TH+ cells (in words)” value in the assay on Human ES cells was “high numbers of TH+cells”. For the same compound, in the assay on Human ES cells (human ES embryoid bodies, 9 days suspension then adherent culture on laminin, with N2 or ITSS, L-proline 100 μM in DMEM), the “proportion of TH+ cells” value is ~50%.
On to FGF2: fibroblast growth factor, for which the “formation of TH+ cells (in words)” value with Human ES cells is given as “little impact on the generation of TH+ cells”.
